We go through one compound from US12156888B2, “CAR T-cells for the treatment of bone metastatic cancer” (H. Lee Moffitt Cancer Center and Research Institute, Inc., priority 2018, dated 2024).

SMILES strings stand for the structures.

Data set [1] concerns C4-2B luciferase expressing cells. Nature of the data set: Intratibial C4-2B bone metastatic CRPC model with human γδ T-cells, zoledronate or vehicle. It counts as in vivo, NSG mice. Particulars: for Percentage of CD3Vd2 positive cells in flushed tibias, higher than control: zoledronate 0.1 mg/Kg. From the text:
FIGS. 7A to 7D show C4-2B cells inoculated into NSG mice and treated with either zoledronate (ZOL) or vehicle control. After establishment and randomization mice ([…]) were inoculated with 3.5×10^6 […]. Subsets of mice were removed from the study at 1, 3 and 5 days late. […] Number illustrate the percentage of γδ T-cells in the total marrow analysis over time. […] FIG. 7C is a graph showing RLUs quantitated over time and the growth rates calculated for each group. Asterisk indicates statistical significance. Mice at the final time point were assessed for γδ T-cell localization (CD3), apoptosis (cleaved caspase-3; CC3) and proliferation (phospho histone H3; pHH3). […] Arrows indicate positivity. DAPI was used as a nuclear counterstain.
Next, the anti-tumor activity of γδ T-cells on established bone metastatic CRPC lesions in vivo was assessed. NSG (NOD.Cg-Prkdcscid112rgtm1Wjl/SzJ) immunocompromised mice were intratibially inoculated with C4-2B luciferase expressing cells (1×10^5) and once established were randomized in zoledronate (0.1 mg/Kg) or vehicle (saline) groups (n=25 per group) based on relative luminescence unit (RLU) measurement. One week later, mice received tail vein injections of human γδ T-cells (3.5×10^6/mouse).
Groups of mice (n=5) were removed from the study 1, 3, 5 days subsequent to injection with tibias being flushed and assessed for human CD3 Vd2 content by flow cytometry. […] Bioluminescence was used as a correlate of tumor growth.

The subject of data set [2] is Panc02.03 pancreatic cancer cells. Put plainly: IPP production in response to zoledronate, LC-MS/MS of cell extracts. It counts as cell-based. As to conditions: Panc02.03 cells, prolonged treatment with high doses. The protocol:
(§1) Following treatment of tumor cells with ZOL, IPP was measured in cell extracts by tandem LC-MS/MS, using AppCp as an internal standard. […] ZOL treatment was administered for 1 h or 18 h, at 2 different doses: 10 μM or 25 μM.
(§2) In order to verify that zoledronate effectively induces IPP accumulation in a model system, C4-2B-PSCA-Luc human CRPC prostate cancer cells were treated with 10 μM or 25 μM of zoledronate, for 1 h or 18 h. Intracellular IPP levels were measured using a semi-quantitative mass spectrometry assay. T47D breast cancer cells were used as positive control, and Panc02.03 pancreatic cancer cells were used as negative controls.

In data set [3] the test system is T47D breast cancer cells. The data set is described as above. It counts as cell-based. As to the method: as §1, §2
Data set [4] relates to C4-2B-PSCA-Luc human CRPC prostate cancer cells. Described as above. Particulars: C4-2B-PSCA-Luc cells, 10 μM or 25 μM, 1 h or 18 h. It counts as cell-based. The protocol: as §1, §2
Data set [5] concerns C4-2B-PSCA cells. Put plainly: RTCA cytotoxicity assay of γδ T-cells. It counts as cell-based, human. The protocol:
Summary of RTCA analysis of C4-2B-PSCA, or control PSCA null C4-2B, cells co-cultured with γδ CAR-T cells, or untransduced controls (UT). FIGS. […] show tumor cells without ZOL pretreatment. FIGS. 6C and 6D show tumor cells with 2 h ZOL pretreatment. FIGS. 6A and 6C show tumor cell viability 2 h post co-culture. FIGS. 6B and 6D show 30 h post co-culture.
The CAR- and TCR-mediated mechanism of tumor cell recognition were tested using the CRPC C4-2B cell line.

Data set [6] concerns PSCA-expressing C42B prostate cancer cells. Put plainly: IFNγ ELISA of co-culture supernatants. It counts as cell-based, human. As to the method: IFNγ ELISA of co-culture supernatants of C4-2B-PSCA cells exposed to media (negative control) or the indicated T cells, in presence of increasing concentrations of Zol (0, 0.4 and 0.8 μM).
Four variants of the anti-PSCA CAR were generated containing either CD27 (CD27z), CD28 (CD28z), or 4-1BB (BBz) costimulation. The fourth variant contains a CD27 costimulatory domain where the TRAF-binding site has been replaced with an inert flexible linker (G4S). γδ CAR-T cells expressing either CAR variant (or GFP as controls) were generated, and cocultured with PSCA-expressing C42B prostate cancer cells, in presence or absence of zoledronate, at the indicated doses. The presence of interferon-γ in the supernatants (measured by ELISA) was used as a marker of T cell activation. CAR-expressing T cells (but not untransduced or GFP-transduced cells) reacted to target cells by producing interferon-γ (solid bars).
γδ CAR-T cells recognize tumor cells via CAR and via TCR. The CAR- and TCR-mediated mechanisms of tumor cell recognition were tested using the CRPC C4-2BPSCA cell line. Cancer cells were treated with either untransduced (UT) control or CAR-expressing γδ T-cells, in the presence or absence of ZOL (0.4 μM). In presence of ZOL, control γδ T cells induced a cytotoxic effect at approx. 18 h, reflecting recognition of C4-2B-PSCA cells via TCR. […] The ability to induce a potent cytolytic effect with lesser cytokine production that can be modulated by ZOL is important since it may allow γδ (CAR−)T-cells to mediate more precise tumor killing, reducing the risk for complications related to massive cytokine release.

The test system of data set [7] is γδ (CAR)-T cells. Put plainly: IL-2 secretion by γδ (CAR)-T cells. It counts as cell-based.
Where [8] appears, read: study endpoint, compared to control.
Setting [9] is: coculture with PSCA-expressing C42B cells.

Consider `O=P(O)(O)C(O)(Cn1ccnc1)P(=O)(O)O` [zoledronate], for which the “Percentage of CD3Vd2 positive cells in flushed tibias, higher than control” value is more than 61% in data set [1] (Day 1 after γδ T-cell injection), more than 32% in data set [1] (Day 3 after γδ T-cell injection) and more than 57% in data set [1] (Day 5 after γδ T-cell injection). Besides, in data set [1] (setting [8]), the “Apoptotic (cleaved caspase-3) cancer cells, tibia histology” value is listed as “increased apoptotic”. For the same compound, the “Proliferative (phospo-Histone H3) cancer cells, tibia histology” value in data set [1] (setting [8]) is recorded as “decreased proliferative”. The “C4-2B growth rate (bioluminescence)” value in data set [1] (zoledronate group compared to controls, all with γδ T-cells) is recorded as “significantly slower”. Moreover, the “Intracellular IPP levels” value in data set [2] is “did not produce IPP”; in data set [3] (1 h, high-dose zoledronate (doses 10 μM or 25 μM)), “detectable over background”; in data set [3] (18 h, both doses (10 μM or 25 μM)), “detectable over background”; in data set [4], “produced high levels of IPP”. For the same compound, the “Time at which control (untransduced) γδ T cells induced a cytotoxic effect” value in data set [5] was “approx. 18 h”. Also, in data set [5] (ZOL 0.4 μM), the “Effect of ZOL on cytolytic activity of γδ CAR-T” value is “greatly enhanced”. The “Effect of ZOL on IFNγ secretion” value was “enhanced IFNγ secretion” in data set [6] (coculture of γδ (CAR−)T-cells with C4-2BPSCA cells, Zol 0, 0.4 and 0.8 μM); “not observed” in data set [6] (αβ T cells with C4-2BPSCA cells). Further, in data set [6] (setting [9]), the “Effect of zoledronate on interferon production by γδ CAR-T cells” value was “enhanced interferon production”. Moreover, in data set [6] (setting [9]), the “Effect of zoledronate on target recognition by GFP-transduced and untransduced γδ T cells” value was “induced target recognition”. In addition, in data set [7], the “Effect of zoledronate on IL-2 secretion by γδ (CAR)-T cells” value is recorded as “increases IL-2 secretion”.
